Test results as given in patent US10377783B2, “Methods and compounds for enhancing contrast in magnetic resonance imaging (MRI)” (priority 2015, dated 2019).

Test system: male rats (Sprague Dawley Crl:SD)
Test: In vivo MRI imaging of 1, predominantly T1-weighted RARE fast-spin-echo scans
Design: species or system rat
Conditions: 0.02 mmol/kg iv; for MRI signal intensity, bladder: baseline (−10 min) 414.3; for MRI signal intensity, skeletal muscle: baseline (−10 min) 432.1; for MRI signal intensity, renal pelvis: baseline (−10 min) 465.7; for MRI signal intensity, renal medulla: baseline (−10 min) 480.8; for MRI signal intensity, liver: baseline (−10 min) 498.6; for MRI signal intensity, renal cortex: baseline (−10 min) 579.1
Description: Compound 1 (aq., 12.5 mM) was injected intravenously into 2 male rats (Sprague Dawley Crl:SD, 312-338 g) at a dosage of 0.02 mmol/kg following anaesthesia with 5% isoflurane. Compound 2 (aq., 6.25 mM) was injected intravenously into 1 male rat (Sprague Dawley Crl:SD, 349 g) at a dosage of 0.01 mmol/kg following anaesthesia with 5% isoflurane. Compound 6 (aq., 6.25 mM) was injected intravenously into 1 male rat (Sprague Dawley Crl:SD, 341 g) at a dosage of 0.01 mmol/kg following anaesthesia with 5% isoflurane. Anesthesia was maintained at 2-2.5% isoflurane through a nose cone for the duration of the scans. Fast-spin-echo images were collected for 45 mins. immediately post-injection. For compound 1, the DT1-weighted RARE (Rapid Acquisition Relaxation Enhancement) scans were acquired with an echo time of 10 ms, and a repetition time=respiratory cycle duration (˜1100 ms). Both T1- and T2-weighted scans were collected on compounds 2 and 6.
The in vivo contrast potential of compounds 1, 2 and 6 were studied via the collection of fast-spin-echo images for 30-45 minutes immediately following injection of an aqueous solution of each complex. The dosage chosen for 1 was 0.02 mmol/kg (c=[…]) while the dosage chosen for 2 and 6 was 0.01 mmol/kg (c=6.25 mM). Predominantly T1-weighted scans with some T2-weighting were performed on two rats injected with 1.

[1] = percentage of the initial intensity, first 45 min

Compound: CC1=NCCNCCNCCN=C(C)c2cccc1n2.O.O.[Cl-].[Cl-].[Mn+2] [Compound 1, [MnL1Cl2].2H2O]
- excretion (summary): rapid excretion
- time to appearance in the bladder: ≤ 5 min
- MRI signal intensity, bladder (2 min after injection): 454.3 arbitrary units of voxel intensity
- MRI signal intensity, skeletal muscle (2 min after injection): 358.5 arbitrary units of voxel intensity
- MRI signal intensity, renal pelvis (2 min after injection): 881.1 arbitrary units of voxel intensity
- MRI signal intensity, renal medulla (2 min after injection): 608.9 arbitrary units of voxel intensity
- MRI signal intensity, liver (2 min after injection): 458.8 arbitrary units of voxel intensity
- MRI signal intensity, renal cortex (2 min after injection): 635.2 arbitrary units of voxel intensity
- MRI signal intensity, bladder (10 min after injection): 1093.1 arbitrary units of voxel intensity
- MRI signal intensity, skeletal muscle (10 min after injection): 354.3 arbitrary units of voxel intensity
- MRI signal intensity, renal pelvis (10 min after injection): 920.7 arbitrary units of voxel intensity
- MRI signal intensity, renal medulla (10 min after injection): 561.8 arbitrary units of voxel intensity
- MRI signal intensity, liver (10 min after injection): 436.2 arbitrary units of voxel intensity
- MRI signal intensity, renal cortex (10 min after injection): 683.4 arbitrary units of voxel intensity
- MRI signal intensity, bladder (15 min after injection): 1147.9 arbitrary units of voxel intensity
- MRI signal intensity, skeletal muscle (15 min after injection): 346.5 arbitrary units of voxel intensity
- MRI signal intensity, renal pelvis (15 min after injection): 806.3 arbitrary units of voxel intensity
- MRI signal intensity, renal medulla (15 min after injection): 524.4 arbitrary units of voxel intensity
- MRI signal intensity, liver (15 min after injection): 410.2 arbitrary units of voxel intensity
- MRI signal intensity, renal cortex (15 min after injection): 660.3 arbitrary units of voxel intensity
- MRI signal intensity, bladder (20 min after injection): 1046.4 arbitrary units of voxel intensity
- MRI signal intensity, skeletal muscle (20 min after injection): 337.5 arbitrary units of voxel intensity
- MRI signal intensity, renal pelvis (20 min after injection): 733.9 arbitrary units of voxel intensity
- MRI signal intensity, renal medulla (20 min after injection): 502.9 arbitrary units of voxel intensity
- MRI signal intensity, liver (20 min after injection): 424.5 arbitrary units of voxel intensity
- MRI signal intensity, renal cortex (20 min after injection): 717.0 arbitrary units of voxel intensity
- MRI signal intensity, bladder (30 min after injection): 970.1 arbitrary units of voxel intensity
- MRI signal intensity, skeletal muscle (30 min after injection): 330.6 arbitrary units of voxel intensity
- MRI signal intensity, renal pelvis (30 min after injection): 704.7 arbitrary units of voxel intensity
- MRI signal intensity, renal medulla (30 min after injection): 512.6 arbitrary units of voxel intensity
- MRI signal intensity, liver (30 min after injection): 398.0 arbitrary units of voxel intensity
- MRI signal intensity, renal cortex (30 min after injection): 775.4 arbitrary units of voxel intensity
- MRI signal intensity, bladder (45 min after injection): 1030.1 arbitrary units of voxel intensity
- MRI signal intensity, skeletal muscle (45 min after injection): 351.0 arbitrary units of voxel intensity
- MRI signal intensity, renal pelvis (45 min after injection): 666.1 arbitrary units of voxel intensity
- MRI signal intensity, renal medulla (45 min after injection): 520.6 arbitrary units of voxel intensity
- MRI signal intensity, liver (45 min after injection): 369.8 arbitrary units of voxel intensity
- MRI signal intensity, renal cortex (45 min after injection): 804.1 arbitrary units of voxel intensity
- liver signal (first 45 minutes): gradual liver hypoenhancement
- renal cortical signal (first 45 minutes): slow increase in the renal cortical signal
- Max. intensity change, bladder [1]: 177%
- Max. intensity change, liver [1]: −26%
- Max. intensity change, renal cortex [1]: 39%
- Max. intensity change, renal medulla [1]: 27%
- Max. intensity change, renal pelvis [1]: 98%
- Max. intensity change, skeletal muscle [1]: −23%
- retention in tissues or organs (scans 3 hours post-injection): no evidence of compound 1 being retained by any tissue or organ
